In PubChem BioAssay (NCI):
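Compound exposure: 48 hours, 5 concentrations, 96-well plates. At the GI50, growth is halved. Definition used: TGI = concentration required for complete inhibition of growth.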

Key:
Assay in all cases: DTP human tumour cell line panel, 48 h
[1] = tested on: HCT-116 colon
[2] = tested on: NCI-H226 lung
[3] = tested on: UO-31 renal
[4] = tested on: KM12 colon
[5] = tested on: HT29 colon
[6] = tested on: SR leukemia
[7] = tested on: U251 CNS
[8] = tested on: NCI/ADR-RES ovarian
[9] = tested on: MDA-MB-231 breast
[10] = tested on: MCF7 breast
[11] = tested on: NCI-H23 lung
[12] = tested on: OVCAR-4 ovarian
[13] = tested on: EKVX NSCLC
[14] = tested on: SK-MEL-2 melanoma
[15] = tested on: TK-10 renal
[16] = tested on: 786-0 renal
[17] = tested on: CCRF-CEM leukemia
[18] = tested on: SK-OV-3 ovarian
[19] = tested on: SNB-19 CNS
[20] = tested on: OVCAR-5 ovarian
[21] = tested on: HOP-62 NSCLC
[22] = tested on: LOX IMVI melanoma
[23] = tested on: K-562 leukemia
[24] = tested on: PC-3 prostate
[25] = tested on: HL-60(TB) leukemia
[26] = tested on: OVCAR-8 ovarian
[27] = tested on: MDA-MB-435
[28] = tested on: A549 NSCLC
[29] = tested on: ACHN renal
[30] = tested on: SF-539 CNS
[31] = tested on: HS 578T breast
[32] = tested on: SF-268 CNS
[33] = tested on: MOLT-4 leukemia
[34] = tested on: SN12C renal
[35] = tested on: HCC-2998 colon
[36] = tested on: OVCAR-3 ovarian
[37] = tested on: COLO 205 colon
[38] = tested on: RXF 393 renal
[39] = tested on: SF-295 CNS
[40] = tested on: NCI-H460 lung
[41] = tested on: BT-549 breast
[42] = tested on: MALME-3M melanoma
[43] = tested on: HOP-92 NSCLC
[44] = tested on: IGROV1 ovarian
[45] = tested on: SNB-75 CNS
[46] = tested on: T-47D breast
[47] = tested on: SK-MEL-28 melanoma
[48] = tested on: HCT-15 colon
[49] = tested on: A498 renal
[50] = tested on: UACC-62 melanoma
[51] = tested on: DU-145 prostate
[52] = tested on: M14 melanoma
[53] = tested on: UACC-257 melanoma
[54] = tested on: SW-620 colon
[55] = tested on: RPMI-8226 leukemia
[56] = tested on: NCI-H522 lung
[57] = tested on: SK-MEL-5 melanoma
[58] = tested on: CAKI-1 renal

In the case of `CCC1CCCCN1C(=S)N/N=C(\C)c1ccccn1` (stereo not given), the TGI [1] was 3.49 µM, the GI50 [2] was 0.561 µM and the TGI [2] was 2.13 µM. The GI50 [3] was 0.134 µM, the TGI [3] was 1.82 µM and the GI50 [4] was 0.0732 µM. The TGI [4] was 1.52 µM, the GI50 [5] was < 0.0253 µM and the TGI [5] was 4.69 µM. The GI50 [6] was 0.0716 µM, the TGI [6] was > 100 µM and the GI50 [7] was < 0.0172 µM. The TGI [7] was 6.16 µM, the GI50 [8] was 0.0472 µM and the TGI [8] was 6.26 µM. For the same compound, the GI50 [9] was 0.0922 µM, the TGI [9] was 3.69 µM and the GI50 [10] was < 0.0121 µM. The TGI [10] was 4.2 µM, the GI50 [11] was 0.0365 µM and the TGI [11] was 5.01 µM. The GI50 [12] was 0.0364 µM, the TGI [12] was 3.57 µM and the GI50 [13] was 0.0728 µM. The TGI [13] was 4.8 µM, the GI50 [14] was 0.0733 µM and the TGI [14] was 1.65 µM. The GI50 [15] was 0.191 µM, the TGI [15] was 2.56 µM and the GI50 [16] was 0.853 µM. For the same compound, the TGI [16] was 2.39 µM, the GI50 [17] was 0.0414 µM and the TGI [17] was > 100 µM. It also gave a GI50 [18] of 0.304 µM, a TGI [18] of 2.46 µM and a GI50 [19] of 0.154 µM. The TGI [19] was 4.79 µM, the GI50 [20] was 0.416 µM and the TGI [20] was 4.88 µM. The GI50 [21] was 0.0504 µM, the TGI [21] was 1.96 µM and the GI50 [22] was < 0.0246 µM. For the same compound, the TGI [22] was 3.86 µM, the GI50 [23] was 0.0238 µM and the TGI [23] was > 100 µM. The GI50 [24] was 0.0195 µM, the TGI [24] was 2.99 µM and the GI50 [25] was 0.0429 µM. The TGI [25] was 3.91 µM, the GI50 [26] was < 0.0255 µM and the TGI [26] was 2.06 µM. The GI50 [27] was 0.127 µM, the TGI [27] was 1.79 µM and the GI50 [28] was 0.0346 µM. For the same compound, the TGI [28] was 2.94 µM, the GI50 [29] was < 0.0175 µM and the TGI [29] was 1.67 µM. For the same compound, the GI50 [30] was 0.171 µM, the TGI [30] was 2.45 µM and the GI50 [31] was 1.06 µM. The TGI [31] was 14.5 µM, the GI50 [32] was 0.0766 µM and the TGI [32] was 5.62 µM. For the same compound, the GI50 [33] was 0.0982 µM, the TGI [33] was > 20.7 µM and the GI50 [34] was 0.114 µM. For the same compound, the TGI [34] was 3.87 µM, the GI50 [35] was 0.156 µM and the TGI [35] was 2.76 µM. The GI50 [36] was < 0.0133 µM, the TGI [36] was 1.16 µM and the GI50 [37] was 0.0227 µM. For the same compound, the TGI [37] was 0.379 µM, the GI50 [38] was 0.488 µM and the TGI [38] was 1.91 µM. For the same compound, the GI50 [39] was 0.0296 µM, the TGI [39] was 2.81 µM and the GI50 [40] was 0.0479 µM. For the same compound, the TGI [40] was 3.17 µM, the GI50 [41] was 0.092 µM and the TGI [41] was 2.72 µM. The GI50 [42] was < 0.0325 µM, the TGI [42] was 2.03 µM and the GI50 [43] was 0.175 µM. The TGI [43] was 1.85 µM, the GI50 [44] was < 0.0304 µM and the TGI [44] was 2.44 µM. The GI50 [45] was 0.479 µM, the TGI [45] was 2.12 µM and the GI50 [46] was < 0.0146 µM. For the same compound, the TGI [46] was 1.63 µM, the GI50 [47] was 0.561 µM and the TGI [47] was 4.65 µM. It also gave a GI50 [48] of 0.0269 µM, a TGI [48] of 3.3 µM and a GI50 [49] of 0.136 µM. It also gave a TGI [49] of 1.93 µM, a GI50 [50] of 0.123 µM and a TGI [50] of 1.92 µM. For the same compound, the GI50 [51] was 0.292 µM, the TGI [51] was 3.75 µM and the GI50 [52] was 0.0358 µM. For the same compound, the TGI [52] was 1.96 µM, the GI50 [53] was < 0.0215 µM and the TGI [53] was 1.68 µM. It also gave a GI50 [54] of 0.0463 µM, a TGI [54] of 2.76 µM and a GI50 [55] of 0.0423 µM. The TGI [55] was 1.89 µM, the GI50 [56] was 0.0912 µM and the TGI [56] was 1.82 µM. The GI50 [57] was 0.194 µM, the TGI [57] was 1.59 µM and the GI50 [58] was 0.0466 µM. It also gave a TGI [58] of 1.83 µM.
